Results taken from US7488756B2, “Use of non-competitive and selective GluR5 antagonists as glutamate receptor modulating compounds” (Neurosearch A/S, priority 2001, dated 2009).

Legend:
GluR6 receptors = molecular target: T1, GluR6 receptors (Homo sapiens, UniProt Q13002); assay: Functional GluR6 assay: inhibition of domoate-induced increase in intracellular free calcium (FLIPR, Fluo-4); assay type: cell-based; conditions: for IC50: HEK293 cells stably expressing un-edited GluR6, inhibition of 2 μM domoate-induced Cai elevation
T1 construct: expressed in transfected cells; host or cells: HEK293
T1 sequence (Q13002 32-908): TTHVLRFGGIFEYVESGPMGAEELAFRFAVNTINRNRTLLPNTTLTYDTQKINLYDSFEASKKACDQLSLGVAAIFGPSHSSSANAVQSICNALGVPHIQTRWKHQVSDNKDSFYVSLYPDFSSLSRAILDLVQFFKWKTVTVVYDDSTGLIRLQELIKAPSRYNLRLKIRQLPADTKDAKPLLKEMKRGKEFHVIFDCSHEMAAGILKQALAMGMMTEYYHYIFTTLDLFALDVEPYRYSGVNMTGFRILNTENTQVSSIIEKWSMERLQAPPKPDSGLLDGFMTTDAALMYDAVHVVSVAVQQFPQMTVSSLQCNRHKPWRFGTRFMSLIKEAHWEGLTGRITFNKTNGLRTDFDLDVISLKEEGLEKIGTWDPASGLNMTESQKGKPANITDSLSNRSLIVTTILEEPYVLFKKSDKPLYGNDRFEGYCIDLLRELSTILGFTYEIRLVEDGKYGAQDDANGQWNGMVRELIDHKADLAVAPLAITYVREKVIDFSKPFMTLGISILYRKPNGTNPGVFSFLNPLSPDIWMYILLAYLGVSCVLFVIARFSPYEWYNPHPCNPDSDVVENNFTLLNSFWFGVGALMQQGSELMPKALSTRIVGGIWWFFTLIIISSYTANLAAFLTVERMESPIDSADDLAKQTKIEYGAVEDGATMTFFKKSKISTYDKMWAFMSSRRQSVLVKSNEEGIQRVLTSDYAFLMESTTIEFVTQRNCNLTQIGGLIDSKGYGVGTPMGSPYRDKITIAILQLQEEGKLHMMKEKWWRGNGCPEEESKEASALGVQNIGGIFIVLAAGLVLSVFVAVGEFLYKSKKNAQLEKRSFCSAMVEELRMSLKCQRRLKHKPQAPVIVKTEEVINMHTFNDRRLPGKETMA
From the text: (§1) In this example the inhibition of domoate-induced increase in intracellular free calcium concentration (Cai) is used as a measure for glutamate antagonist activity of test substances. Domoate is a close analog of kainite, and a potent glutamate agonist.
(§2) Human embryonic HEK293 cells stably expressing GluR5 receptors and GluR6 receptors, respectively, in their un-edited forms, are used.
(§3) Fluorometric methods for measuring Cai have been developed [see e.g. Tsien et al., J. Cell. Biol. 1982 94 325]. The calcium-chelating fluorochromes (tetracarboxylic acids) are loaded into the cells as acetoxymethyl esters and subsequently released by unspecific intracellular esterase's. The free acids, which are impermeable to the cell membrane, are maintained in the cell for hours. The fluorescence spectrum (either EXmax, EMmax or both) is changed by the binding of calcium. The fluorescence is then directly proportional to the Cai.
(§4) The present method uses the fluorochromes Fluo-3 or Fluo-4 as the calcium-chelator. Fluo-3/Fluo-4 is virtually nonfluorescent without calcium but the calcium-Fluo-3/Fluo-4 complexes show a bright fluorescence (EMmax=526 nm) after excitation around 500 nm (EXmax=505 nm). This fluorescence spectrum is similar to the spectrum of fluorescein. Since excitation and emission is in the visible light region of the spectrum standard equipment without quarts optics may be used.
(§5) The HEK293 cells stably expressing GluR5 or GluR6 expressing are grown in Dulbecco's Modified Eagle Medium (DMEM) containing 10% foetal calf serum, in polystyrene culture flasks (175 cm^2) in a humidified atmosphere of 5% CO2 in air, at 37° C. Confluency of cells should be 80-90% on day of plating. GluR5 or GluR6 cells are rinsed with 10 ml of phosphate buffered saline (PBS), then added 1.5 ml of Trypsin-EDTA and left in the incubator for 5 min. After addition of 10 ml of growth media, cells are resuspended by trituration with a 10 ml pipette 15 times.
The cells are seeded at a density of 0.5-1×10^6 cells/ml (100 μl/well) in black-walled, clear bottom, 96-well plates pre-treated with 0.001% PEI solution (75 μl/well for ≧30 min). Plated cells were allowed to proliferate for 24 h before loading with dye.
Fluo-4-AM (1 mg; Molecular Probes) is added 912 μl DMSO containing 25 mg/150 μl Pluoronic F-127 (Molecular Probes). […]
(§6) After the loading period, the loading media is aspirated and the cells are washed twice with 100 μl Na^+ free Ringer solution (NN: 10 mM HEPES, 140 mM Choline chloride, 5 mM KCl, 1 mM MgCl2, 10 mM CaCl2, pH 7.4) to remove extracellular dye. 100 μl NN is added to each well, and the fluorescence is measured in the FLIPR (Fluorescence Image Plate Reader). […]
Reading intervals: preincubation—10 sec.×7 and 3 sec.×3 antagonist phase—3 sec.×17 and 10 sec.×12 […]

GluR5 receptor [1] = molecular target: T2, GluR5 receptor (Homo sapiens, UniProt P39086); assay: Functional GluR5 assay: inhibition of domoate-induced increase in intracellular free calcium (FLIPR, Fluo-4); assay type: cell-based; conditions: for IC50: HEK293 cells stably expressing un-edited GluR5, inhibition of 2 μM domoate-induced Cai elevation
T2 construct: expressed in transfected cells; host or cells: HEK293
T2 sequence (P39086 31-918): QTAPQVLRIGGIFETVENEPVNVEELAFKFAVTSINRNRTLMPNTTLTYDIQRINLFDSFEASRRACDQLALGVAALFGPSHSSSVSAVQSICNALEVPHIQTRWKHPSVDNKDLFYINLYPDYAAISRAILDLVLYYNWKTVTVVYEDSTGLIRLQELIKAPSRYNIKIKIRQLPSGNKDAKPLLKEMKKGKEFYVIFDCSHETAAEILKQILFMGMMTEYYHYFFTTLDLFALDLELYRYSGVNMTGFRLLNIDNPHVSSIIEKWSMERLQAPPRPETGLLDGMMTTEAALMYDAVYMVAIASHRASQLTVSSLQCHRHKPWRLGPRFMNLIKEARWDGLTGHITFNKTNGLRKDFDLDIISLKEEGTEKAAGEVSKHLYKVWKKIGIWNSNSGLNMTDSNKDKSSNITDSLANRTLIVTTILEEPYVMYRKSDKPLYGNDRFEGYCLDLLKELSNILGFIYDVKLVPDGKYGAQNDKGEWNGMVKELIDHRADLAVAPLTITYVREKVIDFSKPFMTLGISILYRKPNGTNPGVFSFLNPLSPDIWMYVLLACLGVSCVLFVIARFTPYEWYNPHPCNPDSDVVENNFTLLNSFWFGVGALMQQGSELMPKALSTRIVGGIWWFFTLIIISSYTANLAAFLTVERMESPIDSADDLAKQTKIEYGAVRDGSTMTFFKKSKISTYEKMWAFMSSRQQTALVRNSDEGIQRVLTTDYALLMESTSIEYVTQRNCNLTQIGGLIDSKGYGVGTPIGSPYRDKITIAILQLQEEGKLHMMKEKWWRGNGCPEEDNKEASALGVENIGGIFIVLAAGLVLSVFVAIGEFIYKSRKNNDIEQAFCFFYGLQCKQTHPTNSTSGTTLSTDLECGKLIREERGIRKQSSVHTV
From the text: as §1, §2
In this example the activity of Compound A of the invention (5-carboxyl-2,4-di-benzamido-benzoic acid), obtained according to Ueda & Imai [Ueda M & Imai Y: Synthesis of polyamides by ring-opening polyaddition of bis-3,1-benzoxazin-4-ones with aliphatic diamines; J. Polym. Sci. 1979 17 (4) 1163-1173], is compared to the action of ATPA, a GluR5 receptor agonist, and CNQX, a GluR5 receptor antagonist that inhibits the activity of the agonist.
as §3, §4
as §5, with “times. […]” for “times.”
as §6

GluR5 receptor [2] = molecular target: T2, GluR5 receptor; assay: GluR5 binding assay: displacement of 3H-ATPA from membranes of HEK293 cells expressing GluR5
Procedure: The amount of radioactivity on the filters is determined by conventional liquid scintillation counting. Specific binding is total binding minus non-specific binding.

GluR5 receptor [3] = molecular target: T2, GluR5 receptor; conditions: Clarke et al., Nature 1997 389 599-603; read-out: Kd of binding to the GluR5 receptor; cited from earlier work
[4] = inhibition of specific binding of 3 nM 3H-ATPA, HEK293 GluR5 cell membranes, 60 minutes at 2° C., read-out: GluR5 Binding IC50

In the case of `CC(C)(C)c1onc(O)c1CC(N)C(=O)O` (stereo not drawn) [ATPA, 2-amino-3-(3-hydroxy-5-tert-butylisoxazol-4-yl)propionic acid], the IC50 (GluR6 receptors) is reported as over 30000 nM, the IC50 (GluR5 receptor [1]) is reported as 700 nM and the IC50 (GluR5 receptor [2]) is reported as 24 nM. For the same molecule, the Kd (GluR5 receptor [3]) was 4.3 nM.

`N#Cc1cc2[nH]c(=O)c(=O)[nH]c2cc1[N+](=O)[O-]` [CNQX] showed an IC50 (GluR6 receptors) of 7600 nM, an IC50 (GluR5 receptor [1]) of 3300 nM and an IC50 (GluR5 receptor [2]; [4]) of 720 nM.

With `O=C(Nc1cc(NC(=O)c2ccccc2)c(C(=O)O)cc1C(=O)O)c1ccccc1` [Compound A, 5-carboxyl-2,4-di-benzamido-benzoic acid] the IC50 (GluR6 receptors) was over 30000 nM, the “Selectivity GluR5 over GluR6” value (GluR6 receptors; conclusion from functional GluR5 and GluR6 data (Table 1)) was “activity only at the GluR5 receptor, not at the GluR6 receptor” and the IC50 (GluR5 receptor [1]) was 1900 nM. The “Mode of action at the GluR5 receptor” value (GluR5 receptor [1]; conclusion from functional activity without binding (Table 1)) was “non-competitive antagonist of the GluR5 receptor” and the IC50 (GluR5 receptor [2]; [4]) was over 10000 nM.
